Measured values published in patent publication US9708314B2, “Heterocyclic amide compound” (NISSAN CHEMICAL INDUSTRIES, LTD., priority 2013, dated 2017).

Experiments:
Format in all cases: in vivo
Stellaria media = assay: Test Example 4: herbicidal effect by application to foliage (diluvial soil, plastic box); settings: for P: herbicidal effect on Stellaria media: application to foliage, application herbicide amount 320 g/ha; for P (Stellaria media) herbicidal effect grade: foliage application
How it was run: (§1)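 Plants were grown in sterilized diluvial soil in a greenhouse at 25-30° C for 14 days, then sprayed on stems and leaves with water-diluted emulsion formulation at set rates in g/ha. Weed control and crop injury were scored 3 weeks after treatment on a 0-5 herbicidal-ratio scale, from 0 (≤5%) to 5 (≥90%).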

Triticum aestivum = assay: Test Example 4: effect on crop by application to foliage (diluvial soil, plastic box); settings: for e: effect on crop, Triticum aestivum: application to foliage, application herbicide amount 320 g/ha; for e (Triticum aestivum) effect on crop grade: foliage application
How it was run: as §1

[1] = system: Beta vulgaris ssp. vulgaris; assay: as above; settings: for f: effect on crop, Beta vulgaris ssp. vulgaris: application to foliage, application herbicide amount 320 g/ha; for f (Beta vulgaris ssp. vulgaris) effect on crop grade: foliage application
How it was run: as §1

Glycine max = assay: as above; settings: for d: effect on crop, Glycine max: application to foliage, application herbicide amount 320 g/ha; for d (Glycine max) effect on crop grade: Application herbicide amount 320 g/ha
How it was run: as §1

Zea mays = assay: as above; settings: for c: effect on crop, Zea mays: application to foliage, application herbicide amount 320 g/ha; for c (Zea mays) effect on crop grade: Application herbicide amount 320 g/ha
How it was run: as §1

Brassica campestris L. = assay: as above; settings: for g: effect on crop, Brassica campestris L.: application to foliage, application herbicide amount 320 g/ha; for g (Brassica campestris L.) effect on crop grade: foliage application
How it was run: as §1

[2] = system: directly sowed Oryza sativa; assay: as above; settings: for b: effect on crop, directly sowed Oryza sativa: application to foliage, application herbicide amount 320 g/ha; for b (directly sowed Oryza sativa) effect on crop grade: Application herbicide amount 320 g/ha
How it was run: as §1

[3] = system: transplanted Oryza sativa; assay: Test Example 1: effect on crop, application before weed generation in submerged conditions; settings: Application herbicide amount 320 g/ha; Seventeenth Table
How it was run: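 Pre-emergence application to water surface of submerged pots (4 cm depth, alluvial soil) on sowing day, with 2.5-leaf rice transplanted; emulsion diluted to g/ha rates. Grown in greenhouse at 25–30 °C; 0–5 herbicidal/crop-effect score after three weeks.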

[4] = system: directly sowed Oryza sativa; assay: Test Example 3: effect on crop by application to foliage (Wagner pot, water depth 0.1-0.5 cm); settings: Nineteenth Table; application to foliage; application herbicide amount 320 g/ha
How it was run: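 Seeds were sown in alluvial soil in Wagner pots, grown for 14 days at 25–30 °C, then sprayed uniformly on foliage with the emulsified compound diluted to a given rate per hectare. Injury was graded three weeks after treatment from 0 (≤5%) to 5 (≥90%).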

[5] = Application herbicide amount 320 g/ha

| Compound | P: herbicidal effect on Stellaria media (Stellaria media) | e: effect on crop, Triticum aestivum (Triticum aestivum) | f: effect on crop, Beta vulgaris ssp. vulgaris [1] | d: effect on crop, Glycine max (Glycine max) | c: effect on crop, Zea mays (Zea mays) | g: effect on crop, Brassica campestris L. (Brassica campestris L.) | b: effect on crop, directly sowed Oryza sativa [2] | a: transplanted Oryza sativa (effect on crop grade) [3] | b (effect on crop grade) [4] | P (Stellaria media) herbicidal effect grade (Stellaria media; [5]) | e (Triticum aestivum) effect on crop grade (Triticum aestivum; [5]) | f (Beta vulgaris ssp. vulgaris) effect on crop grade [1, 5] | d (Glycine max) effect on crop grade (Glycine max; foliage application) | c (Zea mays) effect on crop grade (Zea mays; foliage application) | g (Brassica campestris L.) effect on crop grade (Brassica campestris L.; [5]) | b (directly sowed Oryza sativa) effect on crop grade ([2]; foliage application) | other results |
| --- | --- | --- | --- | --- | --- | --- | --- | --- | --- | --- | --- | --- | --- | --- | --- | --- | --- |
| CC(C)Sc1nnc2c(C(=O)Nc3nnnn3C)ccc(C(F)(F)F)n12 [2-025] | 5 (Herbicidal ratio of 90% or more (almost completely withered)) | 3 (Herbicidal ratio of 40% or more and less than 70%) | 5 (Herbicidal ratio of 90% or more (almost completely withered)) | 4 (Herbicidal ratio of 70% or more and less than 90%) | 1 (Herbicidal ratio of 5% or more and less than 20%) | 4 (Herbicidal ratio of 70% or more and less than 90%) | 5 (Herbicidal ratio of 90% or more (almost completely withered)) | 5 (Herbicidal ratio of 90% or more (almost completely withered)) | 5 (Herbicidal ratio of 90% or more (almost completely withered)) |  |  |  |  |  |  |  |  |
| CSc1nnc2c(C(=O)Nc3nnnn3C)ccc(C(F)(F)F)n12 [2-013] | 5 (Herbicidal ratio of 90% or more (almost completely withered)) | 4 (Herbicidal ratio of 70% or more and less than 90%) | 5 (Herbicidal ratio of 90% or more (almost completely withered)) | 4 (Herbicidal ratio of 70% or more and less than 90%) | 3 (Herbicidal ratio of 40% or more and less than 70%) | 4 (Herbicidal ratio of 70% or more and less than 90%) | 5 (Herbicidal ratio of 90% or more (almost completely withered)) | 3 (Herbicidal ratio of 40% or more and less than 70%) | 5 (Herbicidal ratio of 90% or more (almost completely withered)) |  |  |  |  |  |  |  |  |
| O=C(Nc1nnco1)c1ccc(C(F)(F)F)n2c(N3CCOCC3)nnc12 [1-110] |  |  |  |  |  |  |  | 4 (Herbicidal ratio of 70% or more and less than 90%) | 5 (Herbicidal ratio of 90% or more (almost completely withered)) | 5 (Herbicidal ratio of 90% or more (almost completely withered)) | 3 (Herbicidal ratio of 40% or more and less than 70%) | 5 (Herbicidal ratio of 90% or more (almost completely withered)) | 4 (Herbicidal ratio of 70% or more and less than 90%) | 4 (Herbicidal ratio of 70% or more and less than 90%) | 5 (Herbicidal ratio of 90% or more (almost completely withered)) | 4 (Herbicidal ratio of 70% or more and less than 90%) |  |
| CCOc1nnc2c(C(=O)Nc3nnco3)ccc(C(F)(F)F)n12 [1-112] |  |  |  |  |  |  |  | 0 (Herbicidal ratio of 5% or less (almost no effect)) | 0 (Herbicidal ratio of 5% or less (almost no effect)) | 4 (Herbicidal ratio of 70% or more and less than 90%) | 0 (Herbicidal ratio of 5% or less (almost no effect)) | 5 (Herbicidal ratio of 90% or more (almost completely withered)) | 3 (Herbicidal ratio of 40% or more and less than 70%) | 0 (Herbicidal ratio of 5% or less (almost no effect)) | 3 (Herbicidal ratio of 40% or more and less than 70%) | 0 (Herbicidal ratio of 5% or less (almost no effect)) |  |
| Cc1nnc(NC(=O)c2ccc(C(F)(F)F)n3c(N4CCSCC4)nnc23)o1 [1-118] |  |  |  |  |  |  |  | 2 (Herbicidal ratio of 20% or more and less than 40%) | 3 (Herbicidal ratio of 40% or more and less than 70%) | 4 (Herbicidal ratio of 70% or more and less than 90%) | 1 (Herbicidal ratio of 5% or more and less than 20%) | 5 (Herbicidal ratio of 90% or more (almost completely withered)) | 4 (Herbicidal ratio of 70% or more and less than 90%) | 0 (Herbicidal ratio of 5% or less (almost no effect)) | 5 (Herbicidal ratio of 90% or more (almost completely withered)) | 4 (Herbicidal ratio of 70% or more and less than 90%) |  |
| Cn1nnnc1NC(=O)c1ccc(C(F)(F)F)n2c(Br)nnc12 [2-009] | 5 (Herbicidal ratio of 90% or more (almost completely withered)) | 1 (Herbicidal ratio of 5% or more and less than 20%) | 5 (Herbicidal ratio of 90% or more (almost completely withered)) | 4 (Herbicidal ratio of 70% or more and less than 90%) | 1 (Herbicidal ratio of 5% or more and less than 20%) | 4 (Herbicidal ratio of 70% or more and less than 90%) | 2 (Herbicidal ratio of 20% or more and less than 40%) | 0 (Herbicidal ratio of 5% or less (almost no effect)) | 4 (Herbicidal ratio of 70% or more and less than 90%) |  |  |  |  |  |  |  |  |
| COc1ccc(CSc2nnc3c(C(=O)Nc4nnc(C)o4)ccc(C(F)(F)F)n23)cc1 [1-114] |  |  |  |  |  |  |  | 0 (Herbicidal ratio of 5% or less (almost no effect)) | 0 (Herbicidal ratio of 5% or less (almost no effect)) | 4 (Herbicidal ratio of 70% or more and less than 90%) | 0 (Herbicidal ratio of 5% or less (almost no effect)) | 4 (Herbicidal ratio of 70% or more and less than 90%) | 0 (Herbicidal ratio of 5% or less (almost no effect)) | 0 (Herbicidal ratio of 5% or less (almost no effect)) | 0 (Herbicidal ratio of 5% or less (almost no effect)) | 0 (Herbicidal ratio of 5% or less (almost no effect)) |  |
| CC[S+]([O-])c1nnc2c(C(=O)Nc3nnnn3C)ccc(C(F)(F)F)n12 (stereo not drawn) [2-031] |  |  |  |  |  |  |  | 5 (Herbicidal ratio of 90% or more (almost completely withered)) | 5 (Herbicidal ratio of 90% or more (almost completely withered)) |  |  |  |  |  |  |  | P (Stellaria media) herbicidal effect grade (Stellaria media; 320 g/ha): 5 (Herbicidal ratio of 90% or more (almost completely withered)); e (Triticum aestivum) effect on crop grade (Triticum aestivum; 320 g/ha): 5 (Herbicidal ratio of 90% or more (almost completely withered)); f (Beta vulgaris ssp. vulgaris) effect on crop grade ([1]; 320 g/ha): 5 (Herbicidal ratio of 90% or more (almost completely withered)); c (Glycine max) effect on crop grade (Glycine max; foliage application, 320 g/ha): 5 (Herbicidal ratio of 90% or more (almost completely withered)); b (Zea mays) effect on crop grade (Zea mays; foliage application, 320 g/ha): 5 (Herbicidal ratio of 90% or more (almost completely withered)); g (Brassica campestris L.) effect on crop grade (Brassica campestris L.; 320 g/ha): 5 (Herbicidal ratio of 90% or more (almost completely withered)); d (directly sowed Oryza sativa) effect on crop grade ([2]; foliage application, 320 g/ha): 5 (Herbicidal ratio of 90% or more (almost completely withered)) |
| COCCOCc1nnc2c(C(=O)Nc3nnco3)ccc(C(F)(F)F)n12 [1-107] |  |  |  |  |  |  |  | 2 (Herbicidal ratio of 20% or more and less than 40%) | 3 (Herbicidal ratio of 40% or more and less than 70%) | 5 (Herbicidal ratio of 90% or more (almost completely withered)) | 3 (Herbicidal ratio of 40% or more and less than 70%) | 5 (Herbicidal ratio of 90% or more (almost completely withered)) | 5 (Herbicidal ratio of 90% or more (almost completely withered)) | 1 (Herbicidal ratio of 5% or more and less than 20%) | 5 (Herbicidal ratio of 90% or more (almost completely withered)) | 4 (Herbicidal ratio of 70% or more and less than 90%) |  |
